The values that follow come from article PMC12192727, “Strategies to Develop Na,K-ATPase-α4 Inhibitors as Male Contraceptives” (International Journal of Molecular Sciences, 2025).

A short description of one data set: physchem. It counts as physicochemical. Particulars: PBS pH 7.4. Here is the method: The stock solutions of 11 and 45 were prepared in DMSO at a concentration of 30 mM, and the stock solution of the control compound was prepared in DMSO at a concentration of 30 mM. Progesterone was used as a positive control in the assay. An amount of 10 µL of stock solution of each compound was placed in order into their proper 96-well rack, followed by adding 990 µL of PBS at pH 7.4 into each vial of the capless Solubility Sample plate. This study was performed in duplicate. One stir stick was added to each vial and then sealed using a molded PTDE/SIL 96-Well Plate Cover (Pharmaron, Waltman, MA, USA). The Solubility Sample plate was transferred to the Thermomixer Comfort plate shaker and incubated at RT for 2 h with shaking at 1100 rpm. After 2 h of incubation, stir sticks were removed using a big magnet, and all samples from the Solubility Sample plate were transferred into the filter plate. All the samples were filtered using a vacuum manifold. The filtered samples were diluted with methanol. The soluble fraction (filtrate) was then analyzed by LC-MS/MS, and the compound concentration was determined using 0.3 μM standard solutions prepared from DMSO stocks. The experimental details are reported in the Supporting Information (Table S1). […]
Table S1 . Solubility Results of Test C ompound and Control C ompound in […]
Compound ID Solubility (µM)
Preparation of Stock Solutions: The stock solutions of test compounds were prepared in DMSO at the concentration of 30 mM, and the stock solution of control compound was prepared in DMSO at the concentration of 30 mM.
Progesterone was used as positive control in the assay.
Solubility Determination: 10 µL stock solution of each compound was placed in order into their proper 96-well rack, followed by adding 990 µL of PBS at pH 7.4 into each vial of the cap-less Solubility Sample plate. This study was performed in duplicate. One stir stick was added to each vial and then vials were sealed using a molded PTDE/SIL 96-Well Plate Cover. The Solubility Sample plate was transferred to the Thermomixer Comfort plate shaker and incubated at RT for 2 hours with shaking at 1100 rpm. After 2 hours incubation, stir sticks were removed using a big magnet and all samples from the Solubility Sample plate were transferred into the filter plate. All the samples were filtered by using the Vacuum Manifold. The filtered samples were diluted with methanol. The dilution factor might be changed according to the solubility value and the LC/MS signal response. To prepare 0.3 µM Standards (STD), 30 mM DMSO compound stock solutions were diluted with DMSO to 300 µM and then diluted with methanol to obtain 0.3 µM STDs. Samples were analyzed by LC-MS/MS. All calculations were carried out using Microsoft Excel. The solution filtered was analyzed and quantified against a standard of known concentration in DMSO using LC coupled with Mass spectral peak identification and quantitation. The solubility values of the test compounds were calculated as follow DF means the dilution factor
1. Chromatographic conditions
Apparatus: Triple QuadTM 5500 instrument from AB Inc (Canada) with an ESI interface Column: XSelect Hss T3 2.5µ (2.1×50 mm) Column XP coupled with preguard column Mobile phase: 0.1% formic acid in acetonitrile (A) and 0.1% formic acid in water (B) […]

The subject of another data set is mouse sperm. Kind of data set: Mouse sperm total motility in vitro (CASA). It is filed as cell-based. The following applies: for Emax: Mus musculus, Sperm, 1 h, nanomolar range concentration, read-out: Maximal Motility Inhibition (%). The method, then:
To characterize the SAR of these compounds, we first evaluated their effects on total sperm motility in vitro. Sperm isolated from the cauda epididymis of mice were incubated with the test compounds in modified Whitten’s medium under non-capacitating conditions. Motility was assessed using a computer-assisted sperm analysis (CASA) system.
All experimental protocols involving animals used in this work were approved by the University of Kansas Medical Center Institutional Animal Care and Use Committee (ACUP number: 22-09-26, 10/2022). C57BL/6 mice were purchased from Harlan (Indianapolis, IN, USA). Spermatozoa were isolated from the cauda of adult mouse epididymis in Whitten’s medium, containing 100 mM NaCl, 4.7 mM KCl, 1.2 mM KH2PO4, 1.2 mM MgSO4, 5.5 mM glucose, 0.8 mM pyruvic acid, 4.8 mM lactic acid, and 40 mM Hepes, as previously described.
Spermatozoa (1 × 10^6 cells) were incubated at 37 °C in 100 μL of Whitten’s medium, with the addition of 1.7 mM CaCl2 and in the absence and presence of different amounts of the tested compounds for 60 min. Then, cells were labeled with the fluorescent nucleic acid stain SYTO 21, which allows for the tracking of the movement of the cell head. After 1 min of incubation with the dye, 5.5 μL aliquots from each sample were taken and placed into a glass cell chamber (Leja Products B.V., Nieuw-Vennep, The Netherlands). Sperm were maintained at 37 °C on a heated platform and viewed with an Olympus BX51 microscope (Olympus, Center Valley, PA, USA) through a 20× phase objective. Images of the moving sperm were captured using a CCD camera. Samples were analyzed by CASA using the Minitube SpermVision Digital Semen Evaluation system (version 3.5; Penetrating Innovations, Verona, WI, USA). An average of 200 cells/field were captured, at a rate of 30 frames per field, and a total of 10 fields in each sample were analyzed. Total sperm motility was obtained from sperm maintained in a non-capacitating medium, while for assessing the hyperactive pattern of motility, typical of sperm capacitation, cells were incubated in Whitten’s medium with the addition of 1.7 mM CaCl2, 25 mM sodium bicarbonate, and 0.5% bovine serum albumin.
Figure 2 Effect of simplified steroidal analogs on mouse sperm total motility. Sperm was isolated from the cauda epididymis and treated in the absence and presence of the indicated concentrations of each compound. After one hour of incubation, sperm motility was determined by CASA. Values are expressed as the mean ± SEM of three determinations.
Figure 4 Effect of non-steroidal small compounds on mouse sperm total motility. Sperm was isolated from the cauda epididymis and treated in the absence and presence of the indicated concentrations of each compound. After 1 h of incubation, sperm motility was determined by CASA. Values are expressed as the mean ± SEM of three determinations.

For a further data set, the system named is mouse epididymal sperm. The data set is described as follows: Reversibility of effect on sperm motility after washing. It counts as cell-based. The following applies: after washing the cells with fresh medium. The method, then: An important goal for the development of agents to be used for contraception is to assess the reversibility of their effect on sperm. To achieve this, we treated mouse sperm in the absence and presence of either 13 or 45 and measured epididymal sperm motility before and after washing the cells with fresh medium.
Mouse epididymal sperm were treated in the absence or presence of compounds 13 or 45 for one hour in Whitten’s medium. After an initial measurement of sperm motility using CASA, the sperm was washed by centrifugating the sample at 300× g for 3 min and resuspension in fresh Whitten’s medium. Then, sperm motility was determined again using CASA for the different times and for up to 180 min.
Figure 7 Reversibility of the effect of compounds 13 and 45. Mouse epididymal sperm were treated in the absence (untreated control) or presence of 13 (A) or 45 (B) for one hour. Then, the sperm was washed, and motility was measured before and after washing the cells using CASA. Sperm movement was followed during the indicated times. Values are expressed as the mean ± SEM of three determinations. Samples treated with 13 and 45 were statistically different from the untreated controls, with p < 0.05.

Setting [1] is: aqueous buffer, kinetic from dmso stock, read-out: Solubility.
Where [2] appears, read: simplified steroid analogs, mouse sperm motility.

Structures are written as SMILES. Converted amounts (≈) assume the structure as drawn. “Also recorded” adds a separate entry of the source. Where two headings read alike, the source gives them in different places.

Take `C[C@]12CC[C@H]3[C@@H](CC=C4C[C@@H](O)CC[C@@]43C)[C@@H]1CC[C@@H]2c1cn(Cc2ccccc2)nn1` [Compound 13, (3S,8S,9S,10R,13S,14S,17S)-17-(1-Benzyl-1H-1,2,3-triazol-4-yl)-10,13-dimethyl-2,3,4,7,8,9,10,11,12,13,14,15,16,17-tetradecahydro-1H-cyclopenta[a]phenanthren-3-ol]: the Solubility (in general, how much of the substance goes into solution per volume) in “physchem” is listed as “poor”. Also, the Solubility in “physchem” (setting [1]) is 0.3 µM (≈ 0.129 µg/mL). In the data set on mouse sperm (simplified steroid analogs, mouse sperm total motility), the Emax stood at 41%. The “Shape of inhibitory dose response on sperm motility” value in the data set on mouse sperm (mouse sperm total motility) is “monotonic inhibitory response”. In the data set on mouse sperm (setting [2]), the 50% inhibitory concentration (IC50) (in general, the concentration needed to halve the response being measured) is 24 pM and the “IC50 (pM)” value is “sub-nanomolar range”. In addition, the “Reversibility of effect on sperm motility” value in the data set on mouse epididymal sperm was “maintained over time; also recorded: not reversible”.

As for `CC12CCC(=O)C=C1CCCC2n1cc(-c2ccccc2)nn1` (stereo not drawn) [Compound 45, 4a-Methyl-5-(4-phenyl-1H-1,2,3-triazol-1-yl)-4,4a,5,6,7,8-hexahydronaphthalen-2(3H)-one], the Solubility result in “physchem” is “good”; in the data set “physchem” (setting [1]), 256 µM (≈ 78.7 µg/mL). The Emax in the data set on mouse sperm (non-steroidal small molecules, mouse sperm total motility) was approximately 50%. In the data set on mouse sperm (non-steroidal small molecules, mouse sperm motility), this molecule showed a 50% inhibitory concentration (IC50) of 48 pM. Also, in the data set with mouse epididymal sperm, the “Reversibility of effect on sperm motility” value is given as “maintained over time; also recorded: not reversible”.
